The subject of series [1] is Staphylococcus aureus. Description: Antimicrobial activity against Staphylococcus aureus Smith by micro broth dilution or agar based method. The class given is functional. Conditions: Staphylococcus aureus, Smith; read-out: MIC.
Series [2] in a line: Oral bioavailability in C57BL/6 mouse at 10 mg/kg. The class given is ADME, organism-based. Conditions: in vivo.
Series [3] concerns Streptococcus pneumoniae. Briefly: Antimicrobial activity against Streptococcus pneumoniae IID553 by micro broth dilution or agar based method. The class given is functional. Conditions: Streptococcus pneumoniae, IID553; read-out: MIC.
Series [4] concerns Pseudomonas aeruginosa. Briefly: Antimicrobial activity against Pseudomonas aeruginosa PAO1 by micro broth dilution or agar based method. Conditions: Pseudomonas aeruginosa, PAO1; read-out: MIC. The class given is functional.
The subject of series [5] is Staphylococcus aureus. Description: Antimicrobial activity against methicillin-resistant Staphylococcus aureus OIT971 by micro broth dilution or agar based method. Type of series: functional.
Series [6] relates to Acinetobacter baumannii. Briefly: Antimicrobial activity against Acinetobacter baumannii IID876 by micro broth dilution or agar based method. Conditions: Acinetobacter baumannii, IID876; read-out: MIC. Type of series: functional. (In general: Broth dilution looks for growth in wells or tubes with falling amounts of substance.)
Series [7] has as its system Enterococcus faecium. Description: Antimicrobial activity against VanA expressing vancomycin-resistant Enterococcus faecium by micro broth dilution or agar based method. Type of series: functional. Conditions: Enterococcus faecium; read-out: MIC.
In series [8] the test system is Escherichia coli. Briefly: Antimicrobial activity against Escherichia coli ATCC 25922 by micro broth dilution or agar based method. Type of series: functional. Conditions: Escherichia coli, ATCC 25922; read-out: MIC.
Series [9] in a line: Plasma clearance in C57BL/6 mouse at 1 mg/kg, iv or 10 mg/kg, po. Type of series: ADME, organism-based.
Series [10] concerns Mus musculus. Briefly: Dose normalized AUC in C57BL/6 mouse at 1 mg/kg, iv. Also noted: dose 1 mg/kg, route intravenous. Conditions: in vivo. Type of series: ADME, organism-based.
Series [11] is described as follows: Volume of distribution at steady state in C57BL/6 mouse at 1 mg/kg, iv or 10 mg/kg, po. Type of series: ADME, organism-based. Conditions: in vivo, read-out: Vdss.
Series [12] is described as follows: Half life in C57BL/6 mouse at 1 mg/kg, iv or 10 mg/kg, po. Conditions: in vivo. The class given is ADME, organism-based.
Series [13] deals with Staphylococcus aureus. Briefly: Potency index, ratio of MIC for quinolone-resistant Staphylococcus aureus MS5935 to MIC for quinolone-[…]. Type of series: functional.
For series [14], the target named is Voltage-gated inwardly rectifying potassium channel KCNH2 (Homo sapiens, UniProt Q12809). Description: Inhibition of MK499 binding to human ERG.
Chain of Voltage-gated inwardly rectifying potassium channel KCNH2 (Q12809 whole entry): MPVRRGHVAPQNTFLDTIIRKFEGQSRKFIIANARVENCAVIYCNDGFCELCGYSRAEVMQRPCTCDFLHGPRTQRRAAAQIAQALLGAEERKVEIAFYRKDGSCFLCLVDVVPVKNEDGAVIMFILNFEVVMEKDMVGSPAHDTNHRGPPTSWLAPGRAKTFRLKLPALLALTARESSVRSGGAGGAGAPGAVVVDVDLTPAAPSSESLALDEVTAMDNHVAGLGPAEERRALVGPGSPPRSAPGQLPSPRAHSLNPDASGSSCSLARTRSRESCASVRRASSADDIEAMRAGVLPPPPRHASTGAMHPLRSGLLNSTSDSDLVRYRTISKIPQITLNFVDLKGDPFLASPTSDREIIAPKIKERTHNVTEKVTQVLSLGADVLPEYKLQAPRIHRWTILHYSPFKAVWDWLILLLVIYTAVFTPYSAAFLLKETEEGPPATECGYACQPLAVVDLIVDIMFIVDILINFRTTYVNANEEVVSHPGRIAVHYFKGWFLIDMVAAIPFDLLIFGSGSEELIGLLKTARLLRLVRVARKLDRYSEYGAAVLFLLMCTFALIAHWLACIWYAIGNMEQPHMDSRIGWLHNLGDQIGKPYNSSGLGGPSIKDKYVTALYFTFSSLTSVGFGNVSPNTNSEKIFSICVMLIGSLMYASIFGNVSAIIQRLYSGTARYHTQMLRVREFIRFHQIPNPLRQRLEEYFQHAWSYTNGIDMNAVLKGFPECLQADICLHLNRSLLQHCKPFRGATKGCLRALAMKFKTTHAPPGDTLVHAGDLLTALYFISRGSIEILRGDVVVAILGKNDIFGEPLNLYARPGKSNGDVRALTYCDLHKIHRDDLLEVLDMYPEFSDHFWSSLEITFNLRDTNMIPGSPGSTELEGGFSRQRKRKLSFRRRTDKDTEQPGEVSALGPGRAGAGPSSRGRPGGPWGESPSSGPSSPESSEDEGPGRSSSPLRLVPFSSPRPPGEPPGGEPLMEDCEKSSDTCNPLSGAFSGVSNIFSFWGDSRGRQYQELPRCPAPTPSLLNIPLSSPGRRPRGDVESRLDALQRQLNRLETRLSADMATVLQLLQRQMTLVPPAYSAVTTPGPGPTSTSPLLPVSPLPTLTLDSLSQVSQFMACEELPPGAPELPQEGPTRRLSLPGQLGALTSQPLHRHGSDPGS
Series [15] concerns Staphylococcus aureus. Description: Antimicrobial activity against Staphylococcus aureus in orally dosed mouse bacteremia survival model. The class given is functional. Conditions: po.
The test system of series [16] is Staphylococcus aureus. Description: Antimicrobial activity against Staphylococcus aureus in iv dosed mouse bacteremia survival model. The class given is functional.
Series [17] has as its system Staphylococcus aureus. Description: Antimicrobial activity against quinolone-resistant Staphylococcus aureus MS5935 by micro broth dilution or agar based method. Type of series: functional.
For series [18], the system named is Staphylococcus aureus. Briefly: Antimicrobial activity against quinolone-sensitive Staphylococcus aureus MS5935 by micro broth dilution or agar based method.

SMILES strings stand for the structures. Converted amounts (≈) assume the structure as drawn. Where only a bound is given, the exact number is not on record here.

By MIC is commonly meant the lowest concentration that inhibits growth of the organism. Usually bioavailability stands for dose-corrected exposure relative to a reference, in per cent. Read a high bioavailability as much systemic uptake. For `COc1ccc2ncc(F)c(CCC34CCC(NCc5ccc6c(n5)NC(=O)CO6)(CC3)CO4)c2n1`, the minimal inhibitory concentration (MIC) in series [1] came out at 0.016 µg/mL (≈ 0.0324 µM); in [3] it was 0.125 µg/mL (≈ 0.253 µM); in series [4], 4 µg/mL (≈ 8.1 µM); in [5], 0.008 µg/mL (≈ 0.0162 µM); in [6], 0.5 µg/mL (≈ 1.01 µM); in series [7], 0.5 µg/mL (≈ 1.01 µM). For the same compound, the MIC in [8] came out at 1 µg/mL (≈ 2.03 µM). Further, in [2], the bioavailability came to 71%.

The half-life is the time needed for the level to fall by half in the phase considered. On to `COc1ccc2nccc(CCC34CCC(NCc5ccc6c(n5)NC(=O)CO6)(CC3)CO4)c2n1`, for which the MIC in series [1] is 0.031 µg/mL (≈ 0.0652 µM); in series [3] it was 0.5 µg/mL (≈ 1.05 µM); in series [4], 8 µg/mL (≈ 16.8 µM); in series [5] it was 0.031 µg/mL (≈ 0.0652 µM); in series [6], 2 µg/mL (≈ 4.21 µM); in series [7], 1 µg/mL (≈ 2.1 µM). Besides, the MIC in series [8] came to 2 µg/mL (≈ 4.21 µM). Also, in [9], the clearance amounted to 40.8 mL/min/kg. The compound further gave a bioavailability in series [2] of 30.4%. Also, the AUC/dose in series [10] was found to be 0.86 µM·h/mg/kg. Moreover, the Vd in series [11] came to 5.95 L/kg. In addition, in series [12], the half-life is 7.97 h.

Usually IC50 stands for the concentration that inhibits the measured activity by half. On to `O=C1COc2ccc(CNC34CCC(CCc5c(F)cnc6ccc(N7CCOCC7)nc56)(CC3)OC4)nc2N1`, for which the MIC in series [1] came out at 0.5 µg/mL (≈ 0.911 µM); in [3] it was 4 µg/mL (≈ 7.29 µM); in series [4], 16 µg/mL (≈ 29.2 µM); in [5], 0.25 µg/mL (≈ 0.456 µM); in [6], 16 µg/mL (≈ 29.2 µM); in series [7], 8 µg/mL (≈ 14.6 µM). In addition, in [8], the minimal inhibitory concentration (MIC) was found to be 16 µg/mL (≈ 29.2 µM). Besides, the Ratio in series [13] is under 4. This compound also returned an IC50 in series [14] of 11.5 µM.

As to `CCOc1cc(C)c2ncc(F)c(CCC34CCC(NCc5ccc6c(n5)NC(=O)CO6)(CC3)CO4)c2n1`, the MIC in [1] was found to be 0.063 µg/mL (≈ 0.121 µM); in series [3], 1 µg/mL (≈ 1.92 µM); in [4], 32 µg/mL (≈ 61.4 µM); in [5], 0.031 µg/mL (≈ 0.0594 µM); in series [6] it was 4 µg/mL (≈ 7.67 µM); in [7], 4 µg/mL (≈ 7.67 µM). Also, in series [8], the MIC was 8 µg/mL (≈ 15.3 µM). Also, the Ratio in series [13] is listed as under 4. The compound also showed an IC50 in [14] of 1.19 µM.

In the case of `Cc1cc(S(C)(=O)=O)nc2c(CCC34CCC(NCc5ccc6c(n5)NC(=O)CO6)(CC3)CO4)c(F)cnc12`, the MIC in [1] stood at 0.125 µg/mL (≈ 0.225 µM); in series [3] it was 4 µg/mL (≈ 7.2 µM); in series [4], 32 µg/mL (≈ 57.6 µM); in series [5] it was 0.125 µg/mL (≈ 0.225 µM); in series [6], 2 µg/mL (≈ 3.6 µM); in series [7] it was 4 µg/mL (≈ 7.2 µM). Also, in [8], the MIC was found to be 8 µg/mL (≈ 14.4 µM). Further, the Ratio in series [13] is reported as under 4. In [14], this compound gave an IC50 of 12.4 µM.

By ED50 is commonly meant the dose at which the effect has come halfway, by size or by number of responders. For `COc1ccc2ncc(Cl)c(CCC34CCC(NCc5ccc6c(n5)NC(=O)CO6)(CC3)CO4)c2n1.Cl`, the ED50 in series [15] is over 50 mg/kg; in [16], 17 mg/kg.

Regarding `COc1ccc2nccc(CCC34CCC(NCc5ccc6c(n5)NC(=O)CO6)(CC3)CO4)c2n1.Cl`, the ED50 in [15] is over 50 mg/kg; in series [16] it was 7.2 mg/kg.

As to `COc1ccc2ncc(C#N)c(CCC34CCC(NCc5ccc6c(n5)NC(=O)CO6)(CC3)CO4)c2n1.Cl`, the ED50 worked out at 9.6 mg/kg in [15] and 8.6 mg/kg in series [16].

In the case of `Cl.N#Cc1ccc2ncc(F)c(CCC34CCC(NCc5ccc6c(n5)NC(=O)CO6)(CC3)CO4)c2n1`, the figures for the ED50 in series [15] and in series [16] were 17 mg/kg and 20 mg/kg, respectively.

Regarding `COc1ccc2ncc(C#N)c(CC(O)C34CCC(NCc5ccc6c(n5)NC(=O)CO6)(CC3)CO4)c2n1.Cl` (stereo not given), the ED50 in [15] turned out to be 6.7 mg/kg; in series [16] it was 5.1 mg/kg.

On to `C[C@H]1COc2c(N3CCN(C)CC3)c(F)cc3c(=O)c(C(=O)O)cn1c23.C[C@H]1COc2c(N3CCN(C)CC3)c(F)cc3c(=O)c(C(=O)O)cn1c23.O` [LEVOFLOXACIN], for which the values for the MIC in [17] and in series [18] were over 16 µg/mL and 0.25 µg/mL, respectively. Besides, the Ratio in [13] was over 64.

Values taken from ChEMBL document CHEMBL3421558, “Structure activity relationship of substituted 1,5-naphthyridine analogs of oxabicyclooctane-linked novel bacterial topoisomerase inhibitors as broad-spectrum antibacterial agents (Part-4)” (Bioorg Med Chem Lett, 2015).
